We go through two compounds from US10287228B2, “Antimalarial agent, methods and uses thereof” (UNIVERSIDADE DO PORTO, priority 2015, dated 2019).

Like-named read-outs stand apart in the source and are kept apart here. Where only a bound is given, the exact number is not on record here.

Data set [1] concerns P. falciparum 3D7 strain. Briefly: SYBR Green I antimalarial activity, P. falciparum 3D7. In kind it is cell-based, Plasmodium falciparum. The note with it: read-out: IC50 P. faldparum 3D7. The protocol: (§1) In an embodiment, hierridin B and hierridin C were tested for in vitro activity towards the P. falciparum strains, in particular P. falciparum 3D7 strain and the multidrug-resistant Dd2 strain to verify whether the chlorine atom featured in hierridin C affects the activity of the compound, in particular the antimalarial activity.
In an embodiment, the laboratory-adapted P. falciparum 3D7 and Dd2 strains were cultivated on human erythrocytes suspended in RPMI 1640 medium supplemented with 25 mM HEPES, 6.8 mM hypoxanthine and 10% AlbuMAX II (Life Technologies, Carlsbad, Calif., USA), at pH 7.2. […] Staging and parasitaemia were determined by light microscopy of Giemsa-stained thin blood smears.
(§2) In an embodiment, the antimalarial activities of hierridin B and hierridin C were determined using the SYBR Green I (Life Technologies). Early ring stage parasites were tested in triplicate in a 96-well plate and incubated with drugs for 48 h (37° C., 5% CO2), parasite growth was assessed with SYBR Green I. Each compound was tested in a concentration ranging from 10-0.0097 μM (0.2% DMSO). Fluorescence intensity was measured with a multi-mode microplate reader (Triad, Dynex, Chantilly, Va., USA) with excitation and emission wavelengths of 485 nm and 535 nm, respectively, and analyzed by nonlinear regression using GraphPad Prism 5 (GraphPad Software, La Jolla, Calif., USA).

For data set [2], the system named is P. falciparum multidrug-resistant Dd2 strain. Briefly: microbe, parasite or virus in culture. In kind it is cell-based, Plasmodium falciparum. As for the experimental part:
as §1
In an embodiment, the laboratory-adapted P. falciparum 3D7 and Dd2 strains were cultivated on human erythrocytes suspended in RPMI 1640 medium supplemented with 25 mM HEPES, 6.8 mM hypoxanthine and 10% AlbuMAX II (Life Technologies, Carlsbad, Calif., USA), at pH 7.2. Cultures were maintained at 37° C. under an atmosphere of 5% O2, 3-5% CO2 and N2, and synchronized by sorbitol treatment prior to the assays. Staging and parasitaemia were determined by light microscopy of Giemsa-stained thin blood smears.
as §2

For data set [3], the system named is HT-29 colon adenocarcinoma human cells. The settings on record: cited from earlier work.
Data set [4] concerns colon adenocarcinoma HT-29. Briefly: Cytotoxicity, cell lines exposed to hierridin C. In kind it is cell-based, human. The note with it: HT-29, up to 30 μg mL−1 (75.2 μM). The protocol:
(§3) In an embodiment, several cell lines were exposed to hierridin C, in particular to a concentration of hierridin C up to 30 μg mL^−1 (75.2 μM). The cell lines exposed to hierridin C, were in particular the cell lines of hepatocellular carcinoma HepG2, colon adenocarcinoma HT-29, neuroblastoma SH-SY5Y, breast carcinoma T47D, normal prostate cell line PNT2, breast adenocarcinoma, RKO colon carcinoma and MG-63 osteosarcoma.

Data set [5] concerns normal prostate cell line PNT2. Briefly: Cytotoxicity, cell lines exposed to hierridin C. In kind it is cell-based. The settings on record: PNT2, up to 30 μg mL−1 (75.2 μM). The protocol:
as §3

The subject of data set [6] is hepatocellular carcinoma HepG2. Briefly: Cytotoxicity, cell lines exposed to hierridin C. The note with it: HepG2, up to 30 μg mL−1 (75.2 μM). The format is cell-based. As for the experimental part: as §3
In data set [7] the test system is breast adenocarcinoma. Briefly: Cytotoxicity, cell lines exposed to hierridin C. The settings on record: up to 30 μg mL−1 (75.2 μM). In kind it is cell-based. As for the experimental part: as §3
Data set [8] deals with neuroblastoma SH-SY5Y. Kind of data set: Cytotoxicity, cell lines exposed to hierridin C. The format is cell-based. The settings on record: up to 30 μg mL−1 (75.2 μM). As for the experimental part:
as §3

Data set [9] deals with MG-63 osteosarcoma. Kind of data set: Cytotoxicity, cell lines exposed to hierridin C. In kind it is cell-based. The note with it: MG-63, up to 30 μg mL−1 (75.2 μM). As for the experimental part:
as §3

Data set [10] relates to breast carcinoma T47D. Kind of data set: Cytotoxicity, cell lines exposed to hierridin C. The note with it: up to 30 μg mL−1 (75.2 μM). In kind it is cell-based. As for the experimental part: as §3
The subject of data set [11] is RKO colon carcinoma. Kind of data set: Cytotoxicity, cell lines exposed to hierridin C. The note with it: up to 30 μg mL−1 (75.2 μM). In kind it is cell-based. As for the experimental part: as §3

In the case of `CCCCCCCCCCCCCCCc1cc(OC)cc(OC)c1O` [Hierridin B, reference compound], the IC50 is 2090 ± 80 nM in [1] (3D7 strain (sensitive to chloroquine), 48 h incubation, SYBR Green I); 2250 ± 670 nM in data set [2] (Dd2 strain (resistant to chloroquine and mefloquine), 48 h incubation, SYBR Green I, read-out: IC50 P. faldparum Dd2). Further, in [3], the “cytotoxicity towards HT-29” value is reported as “modest, selective cytotoxicity”.
Turning to `CCCCCCCCCCCCCCCc1c(O)c(OC)cc(OC)c1Cl` [Hierridin C, 3-chloro-4,6-dimethoxy-2-pentadecylphenol], the cytotoxicity entry in [4], in [5], in [6], in [7], in data set [8] and in data set [9] was “No cytotoxicity was observed” in each case. Moreover, the cytotoxicity entry in data set [10] and in data set [11] was “No cytotoxicity was observed” each time. Besides, the IC50 is 1520 ± 50 nM in data set [1] (Plasmodium falciparum, 3D7, 48 h); 2310 ± 110 nM in [2] (Plasmodium falciparum, DD2, 48 h, read-out: IC50 P. faldparum Dd2); around 2000 nM in [2] (Plasmodium falciparum, DD2, read-out: IC50 in P. falciparum strains). Further, the “Resistance indices (RI)” value in data set [2] (Dd2 versus 3D7) was found to be 0.93. The therapeutical index result in data set [2] (relative to IC50 in P. falciparum strains) is given as “>= 50”.

Broadly, the IC50 is the concentration needed to halve the response being measured.
